# Test results as given in article PMC9668969 (Nature Communications, 2022).
# Test system: WT ELIC
# Test: Tryptophan fluorescence emission spectrum with and without agonist
# Type: biochemical, Erwinia chrysanthemi
# Conditions: WT 30 mM Cys
# Description: To measure the tryptophan (Trp) fluorescence emission of ELIC, WT or W206F ELIC was diluted to 3 ml (0.02 mg/ml) and an emission spectrum was collected in a quartz fluorescence cell using a Fluoromax Plus Spectrofluorometer (Horiba Scientific). […] Trp fluorescence measurements with rapid mixing of agonist was carried out using the SX20 stopped-flow spectrofluorometer, outfitted with a 295 nm LED excitation source. Purified ELIC was diluted to 0.1 mg/ml in Trp Stopped-flow Buffer A (10 mM Tris pH 7.5, 100 mM NaCl, 0.05% DDM). A single mixing experiment was performed by mixing ELIC with equal volumes of Buffer A + propylamine. Propylamine was prepared at varying concentrations at 2x the final concentration. The instrument dead time was ~1 ms, enabling capture of most of the time course of change in Trp fluorescence. The time course of decrease in Trp fluorescence after rapid mixing with propylamine was fit to a single exponential to obtain a time constant for the rate of decrease and a measure of the extent of decrease. All replicates were taken from distinct samples.
compound,measurement,setting,value
NCCS [cysteamine],Tryptophan fluorescence emission intensity,wavelength 320,804590
same,Tryptophan fluorescence emission intensity,wavelength 321,840110
same,Tryptophan fluorescence emission intensity,wavelength 322,860020
same,Tryptophan fluorescence emission intensity,wavelength 323,881470
same,Tryptophan fluorescence emission intensity,wavelength 324,898170
same,Tryptophan fluorescence emission intensity,wavelength 325,925090
same,Tryptophan fluorescence emission intensity,wavelength 327,958460
same,Tryptophan fluorescence emission intensity,wavelength 328,977560
same,Tryptophan fluorescence emission intensity,wavelength 329,1001430
same,Tryptophan fluorescence emission intensity,wavelength 330,1017700
same,Tryptophan fluorescence emission intensity,wavelength 331,1038960
same,Tryptophan fluorescence emission intensity,wavelength 332,1051130
same,Tryptophan fluorescence emission intensity,wavelength 333,1064180
same,Tryptophan fluorescence emission intensity,wavelength 334,1076000
same,Tryptophan fluorescence emission intensity,wavelength 335,1094750
same,Tryptophan fluorescence emission intensity,wavelength 336,1105230
same,Tryptophan fluorescence emission intensity,wavelength 337,1102570
same,Tryptophan fluorescence emission intensity,wavelength 338,1110270
same,Tryptophan fluorescence emission intensity,wavelength 339,1107370
same,Tryptophan fluorescence emission intensity,wavelength 340,1100850
same,Tryptophan fluorescence emission intensity,wavelength 341,1109610
same,Tryptophan fluorescence emission intensity,wavelength 342,1105480
same,Tryptophan fluorescence emission intensity,wavelength 343,1098150
same,Tryptophan fluorescence emission intensity,wavelength 344,1095000
same,Tryptophan fluorescence emission intensity,wavelength 345,1092160
same,Tryptophan fluorescence emission intensity,wavelength 346,1088360
same,Tryptophan fluorescence emission intensity,wavelength 347,1077030
same,Tryptophan fluorescence emission intensity,wavelength 348,1068840
same,Tryptophan fluorescence emission intensity,wavelength 349,1066310
same,Tryptophan fluorescence emission intensity,wavelength 350,1055290
same,Tryptophan fluorescence emission intensity,wavelength 351,1041270
same,Tryptophan fluorescence emission intensity,wavelength 352,1036270
same,Tryptophan fluorescence emission intensity,wavelength 353,1015310
same,Tryptophan fluorescence emission intensity,wavelength 354,1003150
same,Tryptophan fluorescence emission intensity,wavelength 355,990040
same,Tryptophan fluorescence emission intensity,wavelength 356,980580
same,Tryptophan fluorescence emission intensity,wavelength 357,950350
same,Tryptophan fluorescence emission intensity,wavelength 358,943630
same,Tryptophan fluorescence emission intensity,wavelength 359,918190
same,Tryptophan fluorescence emission intensity,wavelength 360,914380
same,Tryptophan fluorescence emission intensity,wavelength 361,899440
same,Tryptophan fluorescence emission intensity,wavelength 362,877520
same,Tryptophan fluorescence emission intensity,wavelength 363,850800
same,Tryptophan fluorescence emission intensity,wavelength 364,821470
same,Tryptophan fluorescence emission intensity,wavelength 365,795670
same,Tryptophan fluorescence emission intensity,wavelength 366,776390
same,Tryptophan fluorescence emission intensity,wavelength 367,752920
same,Tryptophan fluorescence emission intensity,wavelength 368,732340
same,Tryptophan fluorescence emission intensity,wavelength 369,720880
same,Tryptophan fluorescence emission intensity,wavelength 370,691880
same,Tryptophan fluorescence emission intensity,wavelength 371,677380
same,Tryptophan fluorescence emission intensity,wavelength 372,661530
same,Tryptophan fluorescence emission intensity,wavelength 373,643370
same,Tryptophan fluorescence emission intensity,wavelength 374,622610
same,Tryptophan fluorescence emission intensity,wavelength 375,605580
same,Tryptophan fluorescence emission intensity,wavelength 376,584360
same,Tryptophan fluorescence emission intensity,wavelength 377,567600
same,Tryptophan fluorescence emission intensity,wavelength 378,558770
same,Tryptophan fluorescence emission intensity,wavelength 379,531360
same,Tryptophan fluorescence emission intensity,wavelength 380,517880
same,Tryptophan fluorescence emission intensity,wavelength 381,499820
same,Tryptophan fluorescence emission intensity,wavelength 382,482620
same,Tryptophan fluorescence emission intensity,wavelength 383,465090
same,Tryptophan fluorescence emission intensity,wavelength 384,451150
same,Tryptophan fluorescence emission intensity,wavelength 385,428430
same,Tryptophan fluorescence emission intensity,wavelength 386,420060
same,Tryptophan fluorescence emission intensity,wavelength 387,400770
same,Tryptophan fluorescence emission intensity,wavelength 388,385350
same,Tryptophan fluorescence emission intensity,wavelength 389,381600
same,Tryptophan fluorescence emission intensity,wavelength 390,360170
same,Tryptophan fluorescence emission intensity,wavelength 391,346400
same,Tryptophan fluorescence emission intensity,wavelength 392,340740
same,Tryptophan fluorescence emission intensity,wavelength 393,327660
same,Tryptophan fluorescence emission intensity,wavelength 394,316470
same,Tryptophan fluorescence emission intensity,wavelength 395,301980
same,Tryptophan fluorescence emission intensity,wavelength 396,291020
same,Tryptophan fluorescence emission intensity,wavelength 397,277640
same,Tryptophan fluorescence emission intensity,wavelength 398,265940
same,Tryptophan fluorescence emission intensity,wavelength 399,253020
same,Tryptophan fluorescence emission intensity,wavelength 400,247580
same,Tryptophan fluorescence emission intensity,wavelength 401,237600
same,Tryptophan fluorescence emission intensity,wavelength 402,233050
same,Tryptophan fluorescence emission intensity,wavelength 403,223960
same,Tryptophan fluorescence emission intensity,wavelength 404,210930
same,Tryptophan fluorescence emission intensity,wavelength 405,205250
same,Tryptophan fluorescence emission intensity,wavelength 406,197950
same,Tryptophan fluorescence emission intensity,wavelength 407,191160
same,Tryptophan fluorescence emission intensity,wavelength 408,187280
same,Tryptophan fluorescence emission intensity,wavelength 409,181840
same,Tryptophan fluorescence emission intensity,wavelength 410,170220
same,Tryptophan fluorescence emission intensity,wavelength 411,167400
same,Tryptophan fluorescence emission intensity,wavelength 412,162070
same,Tryptophan fluorescence emission intensity,wavelength 413,154720
same,Tryptophan fluorescence emission intensity,wavelength 414,150730
same,Tryptophan fluorescence emission intensity,wavelength 415,146270
same,Tryptophan fluorescence emission intensity,wavelength 416,141050
same,Tryptophan fluorescence emission intensity,wavelength 417,136250
same,Tryptophan fluorescence emission intensity,wavelength 418,131260
same,Tryptophan fluorescence emission intensity,wavelength 419,129580
same,Tryptophan fluorescence emission intensity,wavelength 420,125310
